# In US20200131669A1, “CYCLIC PEPTIDE COMPOUND HAVING HIGH MEMBRANE PERMEABILITY, AND LIBRARY CONTAINING SAME” (Chugai Seiyaku Kabushiki Kaisha, priority 2017, published 2020):
# Starred links: 1 amine or outer side, 2 acyl side, 3 side chain; linkers in the order of their positions; H or OH if unused. Positions of bridges follow the written chain, without caps; N, C: chain ends. Non-standard residues stand in square brackets, D forms with d. Residues, ends and D or L forms follow the SMILES beside them. ξ: configuration not given here. *: point of attachment. NMeAbu(3,3-F2-piperidino) = CN[C@@H](CCN1CCCC(F)(F)C1)C(=O)O; X4 = O=C([C@@H]1C[C@@H](N2CCC(F)(F)CC2)CN1[*:1])[*:2]; Glu(NHSO2Me) = CS(=O)(=O)NC(=O)CC[C@H](N)C(=O)O; Phe(4-CHF2) = N[C@@H](Cc1ccc(C(F)F)cc1)C(=O)O; NMePhe(3-Cl) = CN[C@@H](Cc1cccc(Cl)c1)C(=O)O; X16 = O=C(C1CCCCC1)[C@H](CC(=O)[*:2])N[*:1]; hPhe(3-Cl) = N[C@@H](CCc1cccc(Cl)c1)C(=O)O; hhPhe = N[C@@H](CCCc1ccccc1)C(=O)O; NMeF = CN[C@@H](Cc1ccccc1)C(=O)O; NMeGABA = CN(CCCC(=O)[*:2])[*:1]; hPhe = N[C@@H](CCc1ccccc1)C(=O)O; ξThr(3R) = C[C@@H](O)C(N)C(=O)O; Butyl(3-Me,3-OH) = CC(C)(O)CC*; NMeD = CN[C@@H](CC(=O)O)C(=O)O; NMeL = CN[C@@H](CC(C)C)C(=O)O; Propyl(2R-OH) = C[C@@H](O)C*; NMeV = CN[C@H](C(=O)O)C(C)C; NMeA = CN[C@@H](C)C(=O)O; Piperidide = C1CCN(*)CC1; Me2NCH2CH2 = CN(C)CC*; NBuGly = CCCCNCC(=O)O; NPrGly = CCCNCC(=O)O; Sar = CNCC(=O)O; tBu = CC(C)(C)*
# Experiment: Caco-2 membrane permeability, improved method as used in the following Examples (96-well, 20 to 24 h preincubation)
# Assay type: in vitro ADME
# Conditions: human, Caco-2, Caco-2
# Outline: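 Papp (cm/sec) was derived from LC/MS of basal samples collected 180 min after apical dosing in FaSSIF/HBSS pH 6.0 with 1% DMSO, against a basal HBSS pH 7.4 receiver containing 4% BSA. Three-week Caco-2 cultures were first preincubated with compound in DMEM+FaSSIF at 37 °C for 20–24 h.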
row,SMILES,Papp A→B at 180 min
1,CC(C)C[C@@H]1NC(=O)[C@H](Cc2ccccc2)N(C)C(=O)[C@@H](C(C)C)NC(=O)C[C@@H](C(=O)N2CCCCC2)NC(=O)[C@H](C)N(C)C(=O)[C@H](CC(C)C)N(C)C(=O)[C@H](CCc2ccccc2)NC(=O)[C@H](CC(C)C)N(C)C(=O)CN(C)C(=O)[C@H]([C@@H](C)O)NC(=O)[C@H](CC(C)C)N(C)C1=O [pd312] ([dV][NMeF]L[NMeL]T[Sar][NMeL][hPhe][NMeL][NMeA]D-Piperidide; lactam N-11),1.5 ×10⁻⁶ cm/s
2,"CC[C@H](C)[C@@H]1NC(=O)[C@H](C(C)C)N(C)C(=O)CCCN(C)C(=O)C[C@@H](C(=O)N2CCCCC2)NC(=O)[C@H](CC(C)C)N(C)C(=O)[C@H](CC(C)C)N(C)C(=O)[C@H]([C@@H](C)O)NC(=O)[C@H](CC(C)C)N(C)C(=O)[C@H](COCCC(C)(C)O)NC(=O)[C@H](Cc2cccc(Cl)c2)N(C)C(=O)[C@H](Cc2ccccc2)N(C)C1=O [pd435] ([NMeGABA][NMeV]I[NMeF][NMePhe(3-Cl)]S(Butyl(3-Me,3-OH))[NMeL]T[NMeL][NMeL]D-Piperidide; lactam N-11)",1.4 ×10⁻⁶ cm/s
3,CC(C)C[C@H]1C(=O)N[C@H](C(=O)N2CCCCC2)CC(=O)N(C)[C@@H](C)C(=O)N[C@@H](CCc2cccc(Cl)c2)C(=O)N(C)[C@@H](CC(C)C)C(=O)N(C)[C@@H](CC(C)C)C(=O)N[C@@H](C)C(=O)N(C)[C@@H](Cc2ccccc2)C(=O)N(C)[C@@H](C(C)C)C(=O)N[C@@H]([C@@H](C)O)C(=O)N(C)CC(=O)N1C [pd356] ([NMeA][hPhe(3-Cl)][NMeL][NMeL]A[NMeF][NMeV]T[Sar][NMeL]D-Piperidide; lactam N-11),1.2 ×10⁻⁶ cm/s
4,CC(C)C[C@H]1C(=O)N[C@@H](COC(C)(C)C)C(=O)N(C)[C@@H](Cc2ccccc2)C(=O)N(C)[C@@H](CC(C)C)C(=O)N[C@H](C(=O)N2CCCCC2)CC(=O)N2C[C@H](N3CCC(F)(F)CC3)C[C@H]2C(=O)N(C)[C@@H](Cc2cccc(Cl)c2)C(=O)N[C@@H](C(C)C)C(=O)N(C)[C@@H](C(C)C)C(=O)N[C@@H]([C@@H](C)O)C(=O)N(C)CC(=O)N1C [pd458] ([X4][NMePhe(3-Cl)]V[NMeV]T[Sar][NMeL]S(tBu)[NMeF][NMeL]D-Piperidide; lactam N-11),1.2 ×10⁻⁶ cm/s
5,CC[C@H](C)[C@@H]1NC(=O)[C@H](CC(C)C)N(C)C(=O)[C@H](COC[C@@H](C)O)NC(=O)[C@H](Cc2ccccc2)N(C)C(=O)CN(C)C(=O)C[C@@H](C(=O)N2CCCCC2)NC(=O)[C@H](CC(C)C)N(C)C(=O)[C@H](COC(C)(C)C)NC(=O)[C@H](CC(C)C)N(C)C(=O)[C@H](Cc2ccccc2)N(C)C(=O)CN(C)C1=O [pd497] ([Sar][NMeF]S(Propyl(2R-OH))[NMeL]I[Sar][NMeF][NMeL]S(tBu)[NMeL]D-Piperidide; lactam N-11),3.3 ×10⁻⁶ cm/s
6,CC[C@H](C)[C@@H]1NC(=O)[C@H](CC(C)C)N(C)C(=O)CN(C)C(=O)C[C@@H](C(=O)N2CCCCC2)NC(=O)[C@H](C(C)C)N(C)C(=O)[C@H](Cc2ccc(C(F)F)cc2)NC(=O)[C@H](CC(C)C)N(C)C(=O)[C@H](Cc2ccccc2)N(C)C(=O)CN(C)C(=O)[C@H]([C@@H](C)O)NC(=O)[C@H](CC(C)C)N(C)C1=O [pd475] ([Sar][NMeL]I[NMeL]T[Sar][NMeF][NMeL][Phe(4-CHF2)][NMeV]D-Piperidide; lactam N-11),4.2 ×10⁻⁶ cm/s
7,CCCN1CC(=O)N(C)[C@@H](CC(C)C)C(=O)N[C@@H](COC(C)(C)C)C(=O)N(C)[C@@H](Cc2ccccc2)C(=O)N(C)[C@@H](C(C)C)C(=O)N[C@H](C(=O)N2CCCCC2)CC(=O)N[C@H](C(C)C)C(=O)N(C)[C@@H](Cc2ccccc2)C(=O)N[C@@H](COCCN(C)C)C(=O)N(C)[C@@H](CC(C)C)C(=O)N[C@@H]([C@@H](C)O)C1=O [pd50] ([dV][NMeF]S(Me2NCH2CH2)[NMeL]T[NPrGly][NMeL]S(tBu)[NMeF][NMeV]D-Piperidide; lactam N-11),0.15 ×10⁻⁶ cm/s
8,"CC(C)C[C@@H]1NC(=O)[C@H](C)N(C)C(=O)C[C@@H](C(=O)N2CCCCC2)NC(=O)[C@H](C(C)C)N(C)C(=O)CN(C)C(=O)[C@H]([C@@H](C)O)NC(=O)[C@H](CCN2CCCC(F)(F)C2)N(C)C(=O)[C@H](Cc2ccccc2)N(C)C(=O)[C@H](CC(C)C)NC(=O)[C@H](Cc2ccccc2)N(C)C(=O)[C@H](CC(C)C)N(C)C1=O [pd391] ([NMeA]L[NMeL][NMeF]L[NMeF][NMeAbu(3,3-F2-piperidino)]T[Sar][NMeV]D-Piperidide; lactam N-11)",2.4 ×10⁻⁶ cm/s
9,CC[C@H](C)[C@@H]1NC(=O)[C@H](Cc2ccccc2)N(C)C(=O)CN(C)C(=O)C[C@@H](C(=O)N2CCCCC2)NC(=O)[C@H](C)N(C)C(=O)[C@H](CCCc2ccccc2)NC(=O)[C@H](CC(C)C)N(C)C(=O)[C@H](Cc2ccccc2)N(C)C(=O)CN(C)C(=O)[C@H]([C@@H](C)O)NC(=O)[C@H](CC(C)C)N(C)C1=O [pd367] ([Sar][NMeF]I[NMeL]T[Sar][NMeF][NMeL][hhPhe][NMeA]D-Piperidide; lactam N-11),1.5 ×10⁻⁶ cm/s
10,CCCCN1CC(=O)N(C)[C@@H](Cc2ccccc2)C(=O)N[C@@H](CCC(=O)NS(C)(=O)=O)C(=O)N(C)[C@@H](CC(C)C)C(=O)N[C@@H]([C@@H](C)O)C(=O)N(CCCC)CC(=O)N(C)[C@@H](Cc2ccccc2)C(=O)N(C)[C@@H](CC(C)C)C(=O)N[C@@H](CC(C)C)C(=O)N(C)[C@@H](CC(C)C)C(=O)N[C@H](C(=O)N2CCCCC2)CC1=O [pd65] ([NBuGly][NMeF][Glu(NHSO2Me)][NMeL]T[NBuGly][NMeF][NMeL]L[NMeL]D-Piperidide; lactam N-11),0.06 ×10⁻⁶ cm/s
11,CCCCN1CC(=O)N(C)[C@@H](CC(C)C)C(=O)N[C@@H](CC(C)C)C(=O)N(C)[C@@H](Cc2ccccc2)C(=O)N(C)[C@@H](C(C)C)C(=O)N[C@H](C(=O)N2CCCCC2)CC(=O)N[C@H](CC(C)C)C(=O)N(C)[C@@H](Cc2cccc(Cl)c2)C(=O)N[C@@H](CCC(=O)NS(C)(=O)=O)C(=O)N(C)[C@@H](CC(C)C)C(=O)NC([C@@H](C)O)C1=O (stereo partly drawn) [pd59] ([dL][NMePhe(3-Cl)][Glu(NHSO2Me)][NMeL][ξThr(3R)][NBuGly][NMeL]L[NMeF][NMeV]D-Piperidide; lactam N-11),< 0.0088 ×10⁻⁶ cm/s

# Same assay, conditions: human, Caco-2, Caco-2 (cm/sec)
row,SMILES,Papp A→B at 180 min
1,CC(C)C[C@H]1C(=O)N[C@@H](COC(C)(C)C)C(=O)N(C)[C@@H](Cc2ccccc2)C(=O)N(C)[C@@H](CC(C)C)C(=O)N(C)[C@H](C(=O)N2CCCCC2)CC(=O)N2CCC[C@@H]2C(=O)N(C)[C@@H](Cc2cccc(Cl)c2)C(=O)N[C@@H](C(C)C)C(=O)N(C)[C@@H](C(C)C)C(=O)N[C@@H]([C@@H](C)O)C(=O)N(C)CC(=O)N1C [pd165] ([dP][NMePhe(3-Cl)]V[NMeV]T[Sar][NMeL]S(tBu)[NMeF][NMeL][NMeD]-Piperidide; lactam N-11),2.8 ×10⁻⁶ cm/s
2,CC(C)C[C@@H]1NC(=O)[C@H](Cc2ccccc2)N(C)C(=O)[C@H]2CCCN2C(=O)C[C@@H](C(=O)N2CCCCC2)NC(=O)[C@H](Cc2ccccc2)N(C)C(=O)[C@H](Cc2ccccc2)N(C)C(=O)[C@H](COC(C)(C)C)NC(=O)[C@H](CC(C)C)N(C)C(=O)CN(C)C(=O)[C@H]([C@@H](C)O)NC(=O)[C@H](CC(C)C)N(C)C1=O [pd206] ([dP][NMeF]L[NMeL]T[Sar][NMeL]S(tBu)[NMeF][NMeF]D-Piperidide; lactam N-11),1.8 ×10⁻⁶ cm/s
3,CC(C)C[C@@H]1NC(=O)CN(C)C(=O)[C@H](Cc2ccccc2)N(C)C(=O)[C@@H](C)NC(=O)C[C@@H](C(=O)N2CCCCC2)NC(=O)[C@H](Cc2ccccc2)N(C)C(=O)[C@H](Cc2ccccc2)N(C)C(=O)[C@H](COC(C)(C)C)NC(=O)[C@H](CC(C)C)N(C)C(=O)[C@H](Cc2ccccc2)NC(=O)[C@H]([C@@H](C)O)NC1=O [pd246] ([dA][NMeF][Sar]LTF[NMeL]S(tBu)[NMeF][NMeF]D-Piperidide; lactam N-11),0.014 ×10⁻⁶ cm/s
4,CC[C@H](C)[C@@H]1NC(=O)[C@H](CC(C)C)N(C)C(=O)CN(C)C(=O)[C@H]([C@@H](C)O)NC(=O)[C@H](Cc2ccccc2)N(C)C(=O)[C@H](CC(C)C)NC(=O)[C@H](Cc2ccccc2)N(C)C(=O)[C@@H](CC(C)C)NC(=O)C[C@@H](C(=O)N2CCCCC2)NC(=O)[C@H](CC(C)C)N(C)C(=O)[C@H](Cc2ccccc2)N(C)C1=O [pd225] ([dL][NMeF]L[NMeF]T[Sar][NMeL]I[NMeF][NMeL]D-Piperidide; lactam N-11),1 ×10⁻⁶ cm/s
5,CC(C)C[C@H]1C(=O)N[C@@H](C(C)C)C(=O)N(C)[C@@H](Cc2ccccc2)C(=O)N(C)[C@@H](Cc2ccccc2)C(=O)N[C@@H](COC(C)(C)C)C(=O)N(C)[C@@H](CC(C)C)C(=O)N[C@@H]([C@@H](C)O)C(=O)N(C)[C@@H](Cc2ccccc2)C(=O)N(C)[C@@H](CC(C)C)C(=O)N[C@H](C(=O)C2CCCCC2)CC(=O)N(C)CCCC(=O)N1C [pd216] (cyclo([NMeF][NMeF]S(tBu)[NMeL]T[NMeF][NMeL][X16][NMeGABA][NMeL]V)),1.2 ×10⁻⁶ cm/s
6,CC(C)C[C@@H]1NC(=O)[C@H](Cc2ccccc2)N(C)C(=O)[C@@H](C(C)C)NC(=O)C[C@@H](C(=O)N2CCCCC2)NC(=O)[C@H](Cc2ccccc2)N(C)C(=O)[C@H](Cc2ccccc2)N(C)C(=O)[C@H](COC(C)(C)C)NC(=O)[C@H](CC(C)C)N(C)C(=O)CN(C)C(=O)[C@H]([C@@H](C)O)NC(=O)[C@H](CC(C)C)N(C)C1=O [pd215] ([dV][NMeF]L[NMeL]T[Sar][NMeL]S(tBu)[NMeF][NMeF]D-Piperidide; lactam N-11),1.2 ×10⁻⁶ cm/s
7,CC[C@H](C)[C@@H]1NC(=O)[C@H](Cc2ccccc2)N(C)C(=O)[C@@H](C)NC(=O)C[C@@H](C(=O)N2CCCCC2)NC(=O)[C@H](CC(C)C)N(C)C(=O)[C@H](C)N(C)C(=O)[C@H](COC(C)(C)C)NC(=O)[C@H](C)N(C)C(=O)CN(C)C(=O)[C@H](Cc2ccc(O)cc2)NC(=O)[C@H](CC(C)C)N(C)C1=O [pd112] ([dA][NMeF]I[NMeL]Y[Sar][NMeA]S(tBu)[NMeA][NMeL]D-Piperidide; lactam N-11),0.11 ×10⁻⁶ cm/s
